Among the data in US4552882A, “7-(1-Pyrrolyl) derivatives of 1-ethyl-1,4-dihydro-4-oxoquinoline-3-carboxylic acids and 1-ethyl-1,4-dihydro-4-oxo-1,8-naphthyridine-3-carboxylic acids and their use as antimicrobial agents” (Provesan, SA, priority 1983, dated 1985) are MIC and LD50 values, retold here.

In data set [1] the test system is Bacillus subtilis ATCC 6633. The data set can be described thus: MIC in vitro. Type of data set: cell-based. The note with it: ATCC6633, Dextrose agar, 37° C., 20 hours. As to the method: (§1) (G. L. Daquet and Y. A. Chabbect, Techniques en bacteriologie (Bacteriological techniques), vol. 3, Flammarion Medecine Sciences, Paris, 1972 and W. B. Hugo and A. D. Rusell, Pharmaceutical Microbiology, Blackwell Scientific Publications, London, (1977)). Antibiotic medium no. 1 (seed agar) (Oxoid CM 327) Tryptone-soya broth (Oxoid CM 129) Ringer's physiological solution 1/4 (oxoid BR 52) Dextrose agar (BBL-11165) 0.1 N NaOH "Bacillus subtilis" ATCC 6633 Each of the microorganisms is seeded by streaking in tubes of Antibiotic medium No. 1 (seed agar), which are then incubated at 37° C. for 20 hours. Using a culture loop, the cultures are then seeded in tryptone-soyabroth and incubated at 37° C. for 20 hours. The culture obtained is diluted to 1/4 with Ringer's physiological solution, so as to obtain a standardized suspension of 10^7 -10^9 cfu/ml for each organism. Starting from a solution of 1,000 μg/ml in 0.1 N NaOH, each product is diluted in Dextrose agar (previously melted and maintained at 50° C.), with successive dilutions so as to obtain the following concentrations: 64--32--16--8--4--2--1--0.5--0.25--0.125 μg of derivative/ml medium. For each product, the solution of each concentration is subsequently distributed into Petri dishes 10 cm in diameter, with 10 ml of medium per dish and the same number of dishes as microorganisms to be tested. As soon as the medium has cooled, the dishes are seeded with the inoculations using 0.4 ml of inoculation per dish. They are spread with a Driglasky loop and the supernatant is removed. The seeded dishes are incubated at 37° C. for 20 hours.

Data set [2] relates to Staphylococcus aureus ATCC 5488/23. The data set can be described thus: MIC in vitro. Type of data set: cell-based. The note with it: ATCC5488, Dextrose agar, 37° C., 20 hours.
Text: as §1, with “"Staphylococcus aureus"” for “"Bacillus subtilis"”, “5488/23” for “6633”

Data set [3] deals with Salmonella typhimurius AMES 98. The data set can be described thus: MIC in vitro. Type of data set: cell-based, Salmonella typhimurium. As to conditions: AMES98, Dextrose agar, 37° C., 20 hours. The protocol: (§2) (G. L. Daquet and Y. A. Chabbect, Techniques en bacteriologie (Bacteriological techniques), vol. 3, Flammarion Medecine Sciences, Paris, 1972 and W. B. Hugo and A. D. Rusell, Pharmaceutical Microbiology, Blackwell Scientific Publications, London, (1977)).
(§3) Antibiotic medium no. 1 (seed agar) (Oxoid CM 327)
(§4) Tryptone-soya broth (Oxoid CM 129)
(§5) Ringer's physiological solution 1/4 (oxoid BR 52) Dextrose agar (BBL-11165) 0.1 N NaOH
"Salmonella typhimurium" AMES 98
(§6) Each of the microorganisms is seeded by streaking in tubes of Antibiotic medium No. 1 (seed agar), which are then incubated at 37° C. for 20 hours. Using a culture loop, the cultures are then seeded in tryptone-soyabroth and incubated at 37° C. for 20 hours. The culture obtained is diluted to 1/4 with Ringer's physiological solution, so as to obtain a standardized suspension of 10^7 -10^9 cfu/ml for each organism.
(§7) Starting from a solution of 1,000 μg/ml in 0.1 N NaOH, each product is diluted in Dextrose agar (previously melted and maintained at 50° C.), with successive dilutions so as to obtain the following concentrations: 64--32--16--8--4--2--1--0.5--0.25--0.125 μg of derivative/ml medium.
(§8) For each product, the solution of each concentration is subsequently distributed into Petri dishes 10 cm in diameter, with 10 ml of medium per dish and the same number of dishes as microorganisms to be tested.
(§9) As soon as the medium has cooled, the dishes are seeded with the inoculations using 0.4 ml of inoculation per dish. They are spread with a Driglasky loop and the supernatant is removed. The seeded dishes are incubated at 37° C. for 20 hours.

Data set [4] can be described thus: in vivo. As to conditions: mouse, ip. The protocol: To determine this toxicity, C.F.L.P. strain albino mice of both sexes, weighing between 19 and 25 grams, have been used as experimental animals. After an 18 hour fast period with water "ad libitum" the derivatives which are the subjects of the present invention are administered intraperitoneally in 5% suspension in gum arabic. The volume of suspension administered has in all cases been 0.4 ml/20 grams (20 ml/kg), changing the concentration of the suspension according to the dose administered.
One hour after the administration of the derivatives, the animals are supplied with Panlab standard rat-mouse feed. The period of observation of mortality has been 7 days.

Data set [5] has as its system Shigella flexnerii. The data set can be described thus: MIC in vitro. The class given is cell-based. As to conditions: Dextrose agar, 37° C., 20 hours. As to the method:
as §2, §3, §4, §5, §6, §7, §8, §9

Values after ≈ are worked out from the molar mass of the structure shown.

In general, MIC refers to the smallest concentration in the dilution series that meets the test's criterion for growth inhibition. A higher MIC goes with a less susceptible organism. As usually defined, the LD50 is the dose expected to kill half of the subjects tested. On to `CCn1cc(C(=O)O)c(=O)c2ccc(-n3cccc3)cc21` [Example 1, 7-(1-pyrrolyl)-1-ethyl-1,4-dihydro-4-oxo-3-quinolinecarboxylic acid], for which the minimum inhibitory concentration (MIC) in data set [1] was below 0.125 µg/mL; in data set [2], 1 µg/mL (≈ 3.54 µM); in data set [3] it was 0.5 µg/mL (≈ 1.77 µM); in data set [5], 8 µg/mL (≈ 28.3 µM). The same compound showed an LD50 at 168 h in data set [4] above 800 mg/kg.
For the compound `CCn1cc(C(=O)O)c(=O)c2ccc(-n3cccc3)nc21` [Example 3, 1-ethyl-1,4-dihydro-4-oxo-7-(1-pyrrolyl)-1,8-naphthyridine-3-carboxylic acid], the MIC was determined as 0.25 µg/mL (≈ 0.882 µM) in data set [1], 8 µg/mL (≈ 28.2 µM) in data set [2], 0.5 µg/mL (≈ 1.76 µM) in data set [3] and 16 µg/mL (≈ 56.5 µM) in data set [5]. The LD50 at 168 h in data set [4] was 900 mg/kg.
As to `CCn1cc(C(=O)O)c(=O)c2cc(F)c(-n3cccc3)nc21` [Example 4, 1-ethyl-1,4-dihydro-4-oxo-6-fluoro-7-(1-pyrrolyl)-1,8-naphthyridine-3-carboxylic acid], the minimal inhibitory concentration (MIC) stood at 0.03 µg/mL (≈ 0.0996 µM) in data set [1], 0.5 µg/mL (≈ 1.66 µM) in data set [2], 0.12 µg/mL (≈ 0.398 µM) in data set [3] and 2 µg/mL (≈ 6.64 µM) in data set [5]. Moreover, in data set [4], the LD50 at 168 h is above 1000 mg/kg.
As to `CCn1cc(C(=O)O)c(=O)c2cc(F)c(-n3cccc3)cc21` [Example 2, 6-fluoro-7-(1-pyrrolyl)-1-ethyl-1,4-dihydro-4-oxo-3-quinolinecarboxylic acid], the MIC in data set [1] was below 0.125 µg/mL; in data set [2] it was 0.25 µg/mL (≈ 0.833 µM); in data set [3] it was below 0.125 µg/mL; in data set [5], 2 µg/mL (≈ 6.66 µM). Also, in data set [4], the LD50 at 168 h is above 1600 mg/kg.
As to `CCn1cc(C(=O)O)c(=O)c2cnc(N3CCNCC3)nc21` [Pipemidic acid, reference compound], the MIC in data set [1] stood at 8 µg/mL (≈ 26.4 µM); in data set [2] it was 64 µg/mL (≈ 211 µM); in data set [3], 4 µg/mL (≈ 13.2 µM); in data set [5], 4 µg/mL (≈ 13.2 µM).
